Assay results: ChEMBL document CHEMBL3046559, “Sterile oat (Avena sterilis L.) cross-resistance profile to ACCase-inhibiting herbicides in Greece” (2012)

Tests used:
Format in all cases: functional
Avena sterilis [1] = test: Herbicidal activity against Avena sterilis accession P17 assessed as weed survival at 1 times field recommended herbicide dose
Avena sterilis [2] = test: Herbicidal activity against Avena sterilis accession P08 assessed as weed survival at 1 times field recommended herbicide dose
Avena sterilis [3] = test: Herbicidal activity against Avena sterilis accession P21S assessed as weed survival at 1/32 times field recommended herbicide dose
Avena sterilis [4] = test: Herbicidal activity against Avena sterilis accession P06S assessed as weed survival at 1/32 times field recommended herbicide dose
Avena sterilis [5] = test: Herbicidal activity against Avena sterilis accession P22 assessed as weed survival at 32 times field recommended herbicide dose
Avena sterilis [6] = test: Herbicidal activity against Avena sterilis accession P20 assessed as weed survival at 32 times field recommended herbicide dose
Avena sterilis [7] = test: Herbicidal activity against Avena sterilis accession P18 assessed as weed survival at 32 times field recommended herbicide dose
Avena sterilis [8] = test: Herbicidal activity against Avena sterilis accession P03 assessed as weed survival at 1 times field recommended herbicide dose
Avena sterilis [9] = test: Herbicidal activity against Avena sterilis accession P02 assessed as weed survival at 1 times field recommended herbicide dose
Avena sterilis [10] = test: Herbicidal activity against Avena sterilis accession P01 assessed as weed survival at 1 times field recommended herbicide dose
Avena sterilis [11] = test: Herbicidal activity against Avena sterilis accession P19S assessed as induction of weed mortality
Avena sterilis [12] = test: Herbicidal activity against Avena sterilis accession P13S assessed as induction of weed mortality
Avena sterilis [13] = test: Herbicidal activity against Avena sterilis accession P06S assessed as induction of weed mortality
Avena sterilis [14] = test: Herbicidal activity against Avena sterilis accession P22 assessed as induction of weed mortality
Avena sterilis [15] = test: Herbicidal activity against Avena sterilis accession P20 assessed as induction of weed mortality
Avena sterilis [16] = test: Herbicidal activity against Avena sterilis accession P16 assessed as induction of weed mortality
Avena sterilis [17] = test: Herbicidal activity against Avena sterilis accession P14 assessed as induction of weed mortality
Avena sterilis [18] = test: Herbicidal activity against Avena sterilis accession P11 assessed as induction of weed mortality
Avena sterilis [19] = test: Herbicidal activity against Avena sterilis accession P07 assessed as induction of weed mortality
Avena sterilis [20] = test: Herbicidal activity against Avena sterilis accession P04 assessed as induction of weed mortality
Avena sterilis [21] = test: Herbicidal activity against Avena sterilis accession P16 assessed as weed survival at 8 times field recommended herbicide dose
Avena sterilis [22] = test: Herbicidal activity against Avena sterilis accession P15 assessed as weed survival at 8 times field recommended herbicide dose
Avena sterilis [23] = test: Herbicidal activity against Avena sterilis accession P16 assessed as weed survival at 32 times field recommended herbicide dose
Avena sterilis [24] = test: Herbicidal activity against Avena sterilis accession P12 assessed as weed survival at 32 times field recommended herbicide dose
Avena sterilis [25] = test: Herbicidal activity against Avena sterilis accession P07 assessed as weed survival at 32 times field recommended herbicide dose
Avena sterilis [26] = test: Herbicidal activity against Avena sterilis accession P05 assessed as weed survival at 32 times field recommended herbicide dose
Avena sterilis [27] = test: Herbicidal activity against Avena sterilis accession P03 assessed as weed survival at 32 times field recommended herbicide dose
Avena sterilis [28] = test: Herbicidal activity against Avena sterilis accession P02 assessed as weed survival at 32 times field recommended herbicide dose
Avena sterilis [29] = test: Herbicidal activity against Avena sterilis accession P21S assessed as weed survival at 1/16 times field recommended herbicide dose
Avena sterilis [30] = test: Herbicidal activity against Avena sterilis accession P10S assessed as weed survival at 1/16 times field recommended herbicide dose
Avena sterilis [31] = test: Herbicidal activity against Avena sterilis accession P22 assessed as weed survival at 16 times field recommended herbicide dose
Avena sterilis [32] = test: Herbicidal activity against Avena sterilis accession P20 assessed as weed survival at 16 times field recommended herbicide dose
Avena sterilis [33] = test: Herbicidal activity against Avena sterilis accession P18 assessed as weed survival at 16 times field recommended herbicide dose
Avena sterilis [34] = test: Herbicidal activity against Avena sterilis accession P17 assessed as weed survival at 16 times field recommended herbicide dose
Avena sterilis [35] = test: Herbicidal activity against Avena sterilis accession P15 assessed as weed survival at 16 times field recommended herbicide dose
Avena sterilis [36] = test: Herbicidal activity against Avena sterilis accession P12 assessed as weed survival at 16 times field recommended herbicide dose
Avena sterilis [37] = test: Herbicidal activity against Avena sterilis accession P09 assessed as weed survival at 16 times field recommended herbicide dose
Avena sterilis [38] = test: Herbicidal activity against Avena sterilis accession P08 assessed as weed survival at 16 times field recommended herbicide dose
Avena sterilis [39] = test: Herbicidal activity against Avena sterilis accession P07 assessed as weed survival at 16 times field recommended herbicide dose
Avena sterilis [40] = test: Herbicidal activity against Avena sterilis accession P05 assessed as weed survival at 16 times field recommended herbicide dose
Avena sterilis [41] = test: Herbicidal activity against Avena sterilis accession P04 assessed as weed survival at 16 times field recommended herbicide dose
Avena sterilis [42] = test: Herbicidal activity against Avena sterilis accession P03 assessed as weed survival at 16 times field recommended herbicide dose
Avena sterilis [43] = test: Herbicidal activity against Avena sterilis accession P01 assessed as weed survival at 16 times field recommended herbicide dose
Avena sterilis [44] = test: Herbicidal activity against Avena sterilis accession P19S assessed as weed survival at 1/8 times field recommended herbicide dose
Avena sterilis [45] = test: Herbicidal activity against Avena sterilis accession P22 assessed as weed survival at 8 times field recommended herbicide dose
Avena sterilis [46] = test: Herbicidal activity against Avena sterilis accession P20 assessed as weed survival at 8 times field recommended herbicide dose
Avena sterilis [47] = test: Herbicidal activity against Avena sterilis accession P02 assessed as weed survival at 8 times field recommended herbicide dose
Avena sterilis [48] = test: Herbicidal activity against Avena sterilis accession P01 assessed as weed survival at 8 times field recommended herbicide dose
Avena sterilis [49] = test: Herbicidal activity against Avena sterilis accession P21S assessed as weed survival at 1/4 times field recommended herbicide dose
Avena sterilis [50] = test: Herbicidal activity against Avena sterilis accession P13S assessed as weed survival at 1/4 times field recommended herbicide dose
Avena sterilis [51] = test: Herbicidal activity against Avena sterilis accession P16 assessed as weed survival at 4 times field recommended herbicide dose
Avena sterilis [52] = test: Herbicidal activity against Avena sterilis accession P14 assessed as weed survival at 4 times field recommended herbicide dose
Avena sterilis [53] = test: Herbicidal activity against Avena sterilis accession P11 assessed as weed survival at 4 times field recommended herbicide dose
Avena sterilis [54] = test: Herbicidal activity against Avena sterilis accession P09 assessed as weed survival at 4 times field recommended herbicide dose
Avena sterilis [55] = test: Herbicidal activity against Avena sterilis accession P06S assessed as weed survival at 1 times field recommended herbicide dose
Avena sterilis [56] = test: Herbicidal activity against Avena sterilis accession P20 assessed as weed survival at 1 times field recommended herbicide dose
Avena sterilis [57] = test: Herbicidal activity against Avena sterilis accession P03 assessed as weed survival at 4 times field recommended herbicide dose
Avena sterilis [58] = test: Herbicidal activity against Avena sterilis accession P01 assessed as weed survival at 4 times field recommended herbicide dose

## COCc1cnc(C2=NC(C)(C(C)C)C(=O)N2)c(C(=O)O)c1 (stereo not drawn) [IMAZAMOX]
Avena sterilis [1]
  Survival: 3%
Avena sterilis [2]
  Survival: 3%
Avena sterilis [3]
  Survival: 100%
Avena sterilis [4]
  Survival: 97%
Avena sterilis [5]
  Survival: 0%
Avena sterilis [6]
  Survival: 0%
Avena sterilis [7]
  Survival: 0%
Avena sterilis [8]
  Survival: 0%
Avena sterilis [9]
  Survival: 3%
Avena sterilis [10]
  Survival: 0%
Avena sterilis [11]
  GR50: 14 gAi/ha
Avena sterilis [12]
  GR50: 8 gAi/ha
Avena sterilis [13]
  GR50: 9 gAi/ha
Avena sterilis [14]
  GR50: <50 gAi/ha
Avena sterilis [15]
  GR50: <50 gAi/ha
Avena sterilis [16]
  GR50: <50 gAi/ha
Avena sterilis [17]
  GR50: <50 gAi/ha
Avena sterilis [18]
  GR50: <50 gAi/ha
Avena sterilis [19]
  GR50: <50 gAi/ha
Avena sterilis [20]
  GR50: <50 gAi/ha
Avena sterilis [21]
  Survival: 0%
Avena sterilis [22]
  Survival: 0%
Avena sterilis [23]
  Survival: 0%
Avena sterilis [24]
  Survival: 0%
Avena sterilis [25]
  Survival: 0%
Avena sterilis [26]
  Survival: 0%
Avena sterilis [27]
  Survival: 0%
Avena sterilis [28]
  Survival: 0%
Avena sterilis [29]
  Survival: 97%
Avena sterilis [30]
  Survival: 80%
Avena sterilis [31]
  Survival: 0%
Avena sterilis [32]
  Survival: 0%
Avena sterilis [33]
  Survival: 0%
Avena sterilis [34]
  Survival: 0%
Avena sterilis [35]
  Survival: 0%
Avena sterilis [36]
  Survival: 0%
Avena sterilis [37]
  Survival: 0%
Avena sterilis [38]
  Survival: 0%
Avena sterilis [39]
  Survival: 0%
Avena sterilis [40]
  Survival: 0%
Avena sterilis [41]
  Survival: 0%
Avena sterilis [42]
  Survival: 0%
Avena sterilis [43]
  Survival: 0%
Avena sterilis [44]
  Survival: 80%
Avena sterilis [45]
  Survival: 0%
Avena sterilis [46]
  Survival: 0%
Avena sterilis [47]
  Survival: 0%
Avena sterilis [48]
  Survival: 0%
Avena sterilis [49]
  Survival: 60%
Avena sterilis [50]
  Survival: 40%
Avena sterilis [51]
  Survival: 0%
Avena sterilis [52]
  Survival: 0%
Avena sterilis [53]
  Survival: 0%
Avena sterilis [54]
  Survival: 0%
Avena sterilis [55]
  Survival: 0%
Avena sterilis [56]
  Survival: 0%
Avena sterilis [57]
  Survival: 0%
Avena sterilis [58]
  Survival: 0%
